Reference: paper PMC7687371, “Quantitative in Vitro to in Vivo Extrapolation (QIVIVE) for Predicting Reduced Anogenital Distance Produced by Anti-Androgenic Pesticides in a Rodent Model for Male Reproductive Disorders” (Environmental Health Perspectives, 2020)
Read-outs that look alike come from different tables or passages of the source. Marks after values point to notes of the source that are not given here.

Experiments:
[1] = cited from earlier work
androgen receptor (AR) = target: T1, androgen receptor (AR) (Homo sapiens, UniProt P10275); parameters: method as in Orton et al. (2011); details: ref Orton et al. (2011), cited from earlier work
T1 construct: host or cells: AR-EcoScreen cells
T1 sequence (P10275 1-920): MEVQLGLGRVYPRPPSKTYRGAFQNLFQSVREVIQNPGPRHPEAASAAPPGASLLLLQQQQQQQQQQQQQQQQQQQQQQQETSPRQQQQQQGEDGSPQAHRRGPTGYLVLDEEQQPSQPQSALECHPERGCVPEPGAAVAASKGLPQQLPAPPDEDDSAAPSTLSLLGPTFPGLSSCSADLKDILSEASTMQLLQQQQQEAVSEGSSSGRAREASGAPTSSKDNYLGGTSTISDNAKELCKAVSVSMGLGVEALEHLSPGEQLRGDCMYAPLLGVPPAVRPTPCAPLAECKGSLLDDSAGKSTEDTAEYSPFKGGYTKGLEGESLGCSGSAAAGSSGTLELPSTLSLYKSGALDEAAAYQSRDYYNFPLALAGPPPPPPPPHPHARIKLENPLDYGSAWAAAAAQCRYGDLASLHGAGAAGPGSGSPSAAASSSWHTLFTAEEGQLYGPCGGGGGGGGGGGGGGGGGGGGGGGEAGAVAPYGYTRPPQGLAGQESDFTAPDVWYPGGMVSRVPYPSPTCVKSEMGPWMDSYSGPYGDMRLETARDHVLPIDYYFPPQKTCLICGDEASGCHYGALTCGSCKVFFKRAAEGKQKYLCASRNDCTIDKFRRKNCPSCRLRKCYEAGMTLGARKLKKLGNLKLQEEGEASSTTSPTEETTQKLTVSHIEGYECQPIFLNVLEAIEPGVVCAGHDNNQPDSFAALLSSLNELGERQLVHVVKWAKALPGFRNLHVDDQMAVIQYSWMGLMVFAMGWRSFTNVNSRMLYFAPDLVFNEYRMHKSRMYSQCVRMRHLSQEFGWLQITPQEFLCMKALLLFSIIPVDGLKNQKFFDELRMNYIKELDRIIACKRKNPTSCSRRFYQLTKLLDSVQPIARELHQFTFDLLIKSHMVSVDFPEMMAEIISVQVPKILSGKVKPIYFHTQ

[2] = PBK model simulation of fetal and maternal concentrations; parameters: species or system rat
pregnant dams and pups = details: ref EFSA's Draft Assessment Reports (DARs); cited from earlier work
Wistar rats [3] = assay: In vivo Study 3 (fludioxonil, cyprodinil, dimethomorph), reproductive/developmental toxicity, AGD; details: for AGDI mean: Study 3, male pups
Wistar rats [4] = details: rat, in vivo; cited from earlier work
NCI-H295R cells = assay: Cell viability (MTT) in the H295R assay; format: cell-based, human; details: human, 48 h
Procedure: To capture effects on steroid hormone synthesis (testosterone and androstendione), we tested all 12 pesticides in the H295R assay with the human adrenocortical carcinoma cell line NCI-H295R (American Type Culture Collection no. CRL-2,128, LGC Standards), as previously described ([Hecker et al. 2011]; [Rosenmai et al. 2013]). In brief, cells were cultured in DMEM/F-12 +glutamine medium with HEPES buffer (Invitrogen) containing 1% insulin-transferrin-sodium selenite plus Premix (VWR) and 2.5% Nu-Serum (BD Bioscience) at 37°C in a 5% CO2 atmosphere. The day before exposure, cells were seeded 300,000 per well in clear 24-well plates (VWR Corning). Cells were exposed for 48 h to control (Forskolin: 1μM , 10μM (Sigma-Aldrich); and Prochloraz: 0.3μM , 3μM (VWR-Bie and Berntsen) or test compounds. The vehicle (DMSO) concentration was kept constant in all wells (0.1%). After 48 h, the exposure culture medium was removed and stored at –80°C until the levels of 10 steroid hormones (testosterone, androstenedione, aldosterone, corticosterone, cortisol, dehydroepiandrosterone, 17α-hydroxyprogesterone , progesterone, estrone, and 17β-estradiol ) were quantified using the high-performance liquid chromatography–tandem mass spectrometry method described elsewhere ([Mortensen and Pedersen 2007]). Minor modifications were made to accommodate a smaller sample size and to include more hormones. […]

COc1ccc(C(=CC(=O)N2CCOCC2)c2ccc(Cl)cc2)cc1OC [Dimethomorph, dimethomorph]
Unbound plasma fraction (%) ([1]; plasma): 9.4^g %
IC50 (androgen receptor (AR); read-out: AR antagonism (IC50), MDA-kb2 cells): 900 nM
IC20 (androgen receptor (AR); read-out: AR antagonism (IC20 µM)): 300 nM
Ratio between observation and prediction (fetal and dams' plasma concentrations) ([2]; GD21 measurements vs PBK simulations): 0.5 to 2
Predicted maternal plasma level relative to analytically determined concentration ([2]; dams, GD21): approximately one-tenth
Critical toxicity (pregnant dams and pups): Reduced maternal and pup body weight, reduced gestation length
LOAEL (mg/kg bw) (pregnant dams and pups): 67 mg/kg bw
NOAEL (mg/kg bw) (pregnant dams and pups): 20 mg/kg bw
% postnatal deaths (Wistar rats [3]; 20 mg/kg bw/day): 1.4 ± 3.8%
AGD index females (Wistar rats [3]; 20 mg/kg bw/day): 1.12 ± 0.03
AGD index males (Wistar rats [3]; 20 mg/kg bw/day): 2.01 ± 0.04
% postnatal deaths (Wistar rats [3]; 60 mg/kg bw/day): 2.6 ± 4.1%
AGD index females (Wistar rats [3]; 60 mg/kg bw/day): 1.18 ± 0.05
AGD index males (Wistar rats [3]; 60 mg/kg bw/day): 2.15 ± 0.08

CC12CC1(C)C(=O)N(c1cc(Cl)cc(Cl)c1)C2=O (stereo not shown) [Procymidone, procymidone, reference compound]
AGDI ED50 (Wistar rats [4]): 69.4 mg/kg BW

N#Cc1c[nH]cc1-c1cccc2c1OC(F)(F)O2 [Fludioxonil, fludioxonil]
Cytotoxicity in H295R assay, concentrations (NCI-H295R cells): > 12.5 µM
Unbound plasma fraction (%) ([1]; ref Wetmore et al. (2012)): 0.5^g %
Critical toxicity (pregnant dams and pups): Reduced maternal and pup BW
LOAEL (mg/kg bw) (pregnant dams and pups): 212 mg/kg bw
NOAEL (mg/kg bw) (pregnant dams and pups): 21 mg/kg bw
% perinatal loss (Wistar rats [3]; 20 mg/kg bw/day): 11.5 ± 11.9%
% postimplantation loss (Wistar rats [3]; 20 mg/kg bw/day): 8.4 ± 10.2%
% postnatal deaths (Wistar rats [3]; 20 mg/kg bw/day): 3.1 ± 9.7%
%males (Wistar rats [3]; 20 mg/kg bw/day): 54.8 ± 15.6%
AGD females (mm) (Wistar rats [3]; 20 mg/kg bw/day): 2.15 ± 0.09 mm
AGD females (units) (Wistar rats [3]; 20 mg/kg bw/day): 13.04 ± 0.5 units
AGD males (mm) (Wistar rats [3]; 20 mg/kg bw/day): 3.84 ± 0.12 mm
AGD males (units) (Wistar rats [3]; 20 mg/kg bw/day): 23.26 ± 0.7 units
Dam bw gain PD 1-14 (Wistar rats [3]; 20 mg/kg bw/day): 33.1 ± 12.7
Dam bw gain, GD7- PD 1 (Wistar rats [3]; 20 mg/kg bw/day): 23.8 ± 10.5
Dam bw gain,GD7-21 (Wistar rats [3]; 20 mg/kg bw/day): 92.7 ± 15.8
Female birth weight (Wistar rats [3]; 20 mg/kg bw/day): 6.21 ± 0.5
Gestation length (Wistar rats [3]; 20 mg/kg bw/day): 23.0 ± 0.0 days
Litter size (Wistar rats [3]; 20 mg/kg bw/day): 10.5 ± 2.4
Male birth weight (Wistar rats [3]; 20 mg/kg bw/day): 6.48 ± 0.4
Male weights PD 23 (Wistar rats [3]; 20 mg/kg bw/day): 48.66 ± 6.1
Nipple retention females (Wistar rats [3]; 20 mg/kg bw/day): 12.21 ± 0.2
Nipple retention males (Wistar rats [3]; 20 mg/kg bw/day): 0.04 ± 0.09
Offspring weight PD 6 (Wistar rats [3]; 20 mg/kg bw/day): 12.98 ± 1.3
Offspring weight PD 14 (Wistar rats [3]; 20 mg/kg bw/day): 28.07 ± 3.3
% perinatal loss (Wistar rats [3]; 60 mg/kg bw/day): 18.7 ± 32.5%
% postimplantation loss (Wistar rats [3]; 60 mg/kg bw/day): 15.9 ± 32.1%
% postnatal deaths (Wistar rats [3]; 60 mg/kg bw/day): 3.4 ± 9.6%
%males (Wistar rats [3]; 60 mg/kg bw/day): 47.2 ± 14.5%
AGD females (mm) (Wistar rats [3]; 60 mg/kg bw/day): 2.10 ± 0.11 mm
AGD females (units) (Wistar rats [3]; 60 mg/kg bw/day): 12.70 ± 0.6 units
AGD males (mm) (Wistar rats [3]; 60 mg/kg bw/day): 3.77 ± 0.16 mm
AGD males (units) (Wistar rats [3]; 60 mg/kg bw/day): 22.83 ± 1.0 units
Dam bw gain PD 1-14 (Wistar rats [3]; 60 mg/kg bw/day): 38.1 ± 10.8
Dam bw gain, GD7- PD 1 (Wistar rats [3]; 60 mg/kg bw/day): 16.8 ± 8.1
Dam bw gain,GD7-21 (Wistar rats [3]; 60 mg/kg bw/day): 84.8 ± 9.7
Female birth weight (Wistar rats [3]; 60 mg/kg bw/day): 6.18 ± 0.3
Gestation length (Wistar rats [3]; 60 mg/kg bw/day): 23.0 ± 0.0 days
Litter size (Wistar rats [3]; 60 mg/kg bw/day): 11.0 ± 1.3
Male birth weight (Wistar rats [3]; 60 mg/kg bw/day): 6.58 ± 0.4
Male weights PD 23 (Wistar rats [3]; 60 mg/kg bw/day): 49.78 ± 6.9
Nipple retention females (Wistar rats [3]; 60 mg/kg bw/day): 12.13 ± 0.2
Nipple retention males (Wistar rats [3]; 60 mg/kg bw/day): 0.08 ± 0.16
Offspring weight PD 6 (Wistar rats [3]; 60 mg/kg bw/day): 13.20 ± 1.6
Offspring weight PD 14 (Wistar rats [3]; 60 mg/kg bw/day): 28.41 ± 4.2
% perinatal loss (Wistar rats [3]; 180 mg/kg bw/day): 32.3 ± 35.6%
% postimplantation loss (Wistar rats [3]; 180 mg/kg bw/day): 31.4 ± 36.0%
% postnatal deaths (Wistar rats [3]; 180 mg/kg bw/day): 1.1 ± 2.7%
%males (Wistar rats [3]; 180 mg/kg bw/day): 63.0 ± 20.8%
AGD females (mm) (Wistar rats [3]; 180 mg/kg bw/day): 2.15 ± 0.10 mm
AGD females (units) (Wistar rats [3]; 180 mg/kg bw/day): 13.04 ± 0.6 units
AGD males (mm) (Wistar rats [3]; 180 mg/kg bw/day): 3.81 ± 0.18 mm
AGD males (units) (Wistar rats [3]; 180 mg/kg bw/day): 23.11 ± 1.1 units
Dam bw gain PD 1-14 (Wistar rats [3]; 180 mg/kg bw/day): 23.2 ± 15.5
Dam bw gain, GD7- PD 1 (Wistar rats [3]; 180 mg/kg bw/day): 17.5 ± 14.9
Dam bw gain,GD7-21 (Wistar rats [3]; 180 mg/kg bw/day): 71.3 ± 20.7
Female birth weight (Wistar rats [3]; 180 mg/kg bw/day): 6.06 ± 0.5
Gestation length (Wistar rats [3]; 180 mg/kg bw/day): 22.8 ± 0.75 days
Litter size (Wistar rats [3]; 180 mg/kg bw/day): 8.2 ± 5.0
Male birth weight (Wistar rats [3]; 180 mg/kg bw/day): 6.51 ± 0.6
Male weights PD 23 (Wistar rats [3]; 180 mg/kg bw/day): 47.97 ± 5.6
Nipple retention females (Wistar rats [3]; 180 mg/kg bw/day): 12.41 ± 0.6
Nipple retention males (Wistar rats [3]; 180 mg/kg bw/day): 0.47 ± 0.78
Offspring weight PD 6 (Wistar rats [3]; 180 mg/kg bw/day): 12.54 ± 1.9
Offspring weight PD 14 (Wistar rats [3]; 180 mg/kg bw/day): 26.58 ± 4.1
Nipple retention at PD14, statistics in words (Wistar rats [3]; Study 3): no statistically significant effects on nipple retention
AGDI mean (Wistar rats [3]; dose 20 mg/kg BW): 2.06
AGDI mean (Wistar rats [3]; dose 60 mg/kg BW): 2.01
AGDI mean (Wistar rats [3]; dose 180 mg/kg BW): 2.06
AGDI reduction (%) (Wistar rats [3]; male offspring, normalized AGDI scale, dose 60 mg/kg BW per day): 13%
